US10905700B2, “Chemoprevention of colorectal cancer” (SOFAR SPA, priority 2012, dated 2021)

What was measured:
Assay type in all cases: cell-based
[1] = system: colorectal adenocarcinoma cell line CaCo2; test: Growth curve (cell count) of cell line CaCo2 treated with 5-ASA and ASA; details: CaCo2, 96 hours; for cellularity "fold change" value / mortality / survival of treated cells: concentration of 20 mM of the analysed drugs
Experimental: (§1) The cell lines CaCo2 and HT29 of colorectal adenocarcinoma obtained from the ATCC (Rockville, Md., USA) were grown in a DMEM culture medium (Euroclone, Devon, UK), to which were added 10% foetal bovine serum (Lonza, Walkersville, Md., USA) inactivated at heat and 1 mM of L-glutamine (Euroclone). The 5-aminosalicylic acid (5-ASA, SOFAR S.p.A., Milan, Italy) and acetylsalicylic acid (ASA, Sigma Aldrich, St Louise, Mo., USA) were dissolved in a culture medium in a concentration of respectively 20 and 10 mM. The vitamin D3 (VD3) (1 alpha, 25 dihydroxyvitamin D3, calcitriol, Sigma Aldrich) was diluted in the culture medium at a concentration of 10^−7 M. For the experiments conducted with the cell line HT29, 300,000 cells were sown for each sample and 5-ASA, vitamin D3 or the combination of 5-ASA and VD3 were added to each well. For the experiments conducted with the cell line CaCo2, on the other hand, 300,000 cells were again sown for each sample, but adding 5-ASA or ASA to each well. The treated cells were then subjected to a cell count every 24 hours to monitor the anti-proliferation effect of the different stimuli. After 96 hours of treatment all the cells were collected, resorbed and the RNA was extracted by means of the “Qiagen total RNA purification kit” following the manufacturer's instructions (Qiagen, Valencia, Calif.). The integrity and concentration of the RNA were tested using the Bio-Analyzer technique (Applied Biosystem, Foster City, Calif.). 100 ng total of RNA were then retrotranscribed using the High Capacity cDNA Archive Kit (Applied Biosystems) on the basis of the instructions provided by the manufacturer. The QRT-PCR was then carried out with an ABI PRISM 7900 (Applied Biosystems) sequence detecting system for quantifying the relative levels of mRNA measured in the various samples. The triggers and probes for amplifying the mRNA of the μ-protocadherin, E-cadherin, p21^waf-1, KLF4 and glyceraldehyde 3-phosphate dehydrogenase (GAPDH) were devised by Applied Biosystems. Each sample of cDNA was processed in triplicate in 50 μl of reaction volume using the Taqman Universal PCR Master Mix (Applied Biosystems). Thermal cyclisation was started with initial denaturation at 50° C. for 2 minutes and at 90° C. for 10 minutes followed by 40 cycles of 15 seconds at 95° C. and 1 minute at 60° C. The QRT-PCR signals were evacuated using the corresponding quantification method ΔΔCt (Livak K J, Schmittgen T D. Relative gene expression data were analysed using real-time quantitative PCR and the 2(-Delta Delta C(T)) Method. Methods 2001; 25(4):402-8). This procedure calculates the relative difference in gene expression of the target gene normalised on the endogen control (GAPDH) and compared with a calibrating sample. The values obtained were expressed as a relative quantity (RQ) of the variation in the messenger levels.
In order to characterise further the profile of efficacy and safety associated with the chemopreventive properties of 5-ASA, a series of experiments was conducted of the same type as the series explained previously, in which a comparative analysis was conducted of the biological effects determined on cancer colonocytes following treatment with 5-ASA and with aspirin (ASA), i.e. the main drug of the family of NSAIDs. […]

[2] = system: μ-protocadherin, E-cadherin, p21^waf1 and KLF4 messenger expression in CaCo2 cells; test: QRT-PCR analysis of mRNA of β-catenin signal pathway genes in CaCo2 cells; details: CaCo2, 96 hours; 5-ASA 20 mM, ASA 10 mM
Experimental: as §1
On the samples taken from these cell cultures and from other cultures used as a control, the levels of messenger RNA of the genes listed in the previous paragraph (see FIG. 2) was determined by Quantitative Real Time RT-PCR. The obtained results have shown that the messenger expression of the μ-protocadherin, E-cadherin, p21^waf1 and KLF4 genes were induced respectively 3.8, 2.4, 8.0 and 5.5 times after treatment with 5-ASA 20 mM (FIG. 4), confirming the data previously observed on the cell line HT29. […] This datum is not surprising, considering the redundancy and heterogeneity that characterise molecular regulation of the gene p21^waf1, the expression of which is not only regulated by the proliferation signalling pathway of the β chain, explored in our experimental conditions through the evaluation of the codifying genes for μ-protocadherin, E-cadherin and KLF4, but also by numerous signalling pathways.

[3] = system: μ-protocadherin, E-cadherin, p21^waf1 and KLF4 messenger expression in HT29 cells; test: QRT-PCR analysis of mRNA of genes regulating proliferation, differentiation and apoptosis in HT29 cells; details: HT29, 96 hours; 5-ASA 20 mM, VD3 10^-7 M, alone or combined; RQ vs calibrator, normalised on GAPDH
Experimental: The cell lines CaCo2 and HT29 of colorectal adenocarcinoma obtained from the ATCC (Rockville, Md., USA) were grown in a DMEM culture medium (Euroclone, Devon, UK), to which were added 10% foetal bovine serum (Lonza, Walkersville, Md., USA) inactivated at heat and 1 mM of L-glutamine (Euroclone). The 5-aminosalicylic acid (5-ASA, SOFAR S.p.A., Milan, Italy) and acetylsalicylic acid (ASA, Sigma Aldrich, St Louise, Mo., USA) were dissolved in a culture medium in a concentration of respectively 20 and 10 mM. The vitamin D3 (VD3) (1 alpha, 25 dihydroxyvitamin D3, calcitriol, Sigma Aldrich) was diluted in the culture medium at a concentration of 10^-7 M. For the experiments conducted with the cell line HT29, 300,000 cells were sown for each sample and 5-ASA, vitamin D3 or the combination of 5-ASA and VD3 were added to each well. For the experiments conducted with the cell line CaCo2, on the other hand, 300,000 cells were again sown for each sample, but adding 5-ASA or ASA to each well. The treated cells were then subjected to a cell count every 24 hours to monitor the anti-proliferation effect of the different stimuli. After 96 hours of treatment all the cells were collected, resorbed and the RNA was extracted by means of the “Qiagen total RNA purification kit” following the manufacturer's instructions (Qiagen, Valencia, Calif.). The integrity and concentration of the RNA were tested using the Bio-Analyzer technique (Applied Biosystem, Foster City, Calif.). 100 ng total of RNA were then retrotranscribed using the High Capacity cDNA Archive Kit (Applied Biosystems) on the basis of the instructions provided by the manufacturer. The QRT-PCR was then carried out with an ABI PRISM 7900 (Applied Biosystems) sequence detecting system for quantifying the relative levels of mRNA measured in the various samples. The triggers and probes for amplifying the mRNA of the μ-protocadherin, E-cadherin, p21^waf-1, KLF4 and glyceraldehyde 3-phosphate dehydrogenase (GAPDH) were devised by Applied Biosystems. Each sample of cDNA was processed in triplicate in 50 μl of reaction volume using the Taqman Universal PCR Master Mix (Applied Biosystems). Thermal cyclisation was started with initial denaturation at 50° C. for 2 minutes and at 90° C. for 10 minutes followed by 40 cycles of 15 seconds at 95° C. and 1 minute at 60° C. The QRT-PCR signals were evacuated using the corresponding quantification method ΔΔ[…]. Relative gene expression data were analysed using real-time quantitative PCR and the 2(-Delta Delta C(T)) Method. Methods 2001; 25(4):402-8). This procedure calculates the relative difference in gene expression of the target gene normalised on the endogen control (GAPDH) and compared with a calibrating sample. The values obtained were expressed as a relative quantity (RQ) of the variation in the messenger levels. In order to check at the molecular level the effects determined on the cell line HT29 by the association 5-ASA/VD3, “Real Time”, quantitative RT-PCR was used to analyse the expression of a series of genes the protein products of which are involved in the regulation of the proliferation, differentiation and apoptosis of cancer colonocytes such as μ-protocadherin, E-cadherin, p21^waf1 and KLF4. This analysis was conducted on cell cultures subjected to 96 hours of treatment with the studied drugs, which were used in the previously disclosed concentrations.

[4] = system: colorectal adenocarcinoma cell line HT29; test: Growth curve (cell count every 24 hours) of cell line HT29; details: HT29, 96 hours of stimulation; 5-ASA 20 mM, VD3 10^-7 M, alone or combined; control 14 expansions
Experimental: The cell lines CaCo2 and HT29 of colorectal adenocarcinoma obtained from the ATCC (Rockville, Md., USA) were grown in a DMEM culture medium (Euroclone, Devon, UK), to which were added 10% foetal bovine serum (Lonza, Walkersville, Md., USA) inactivated at heat and 1 mM of L-glutamine (Euroclone). The 5-aminosalicylic acid (5-ASA, SOFAR S.p.A., Milan, Italy) and acetylsalicylic acid (ASA, Sigma Aldrich, St Louise, Mo., USA) were dissolved in a culture medium in a concentration of respectively 20 and 10 mM. […] The QRT-PCR was then carried out with an ABI PRISM 7900 (Applied Biosystems) sequence detecting system for quantifying the relative levels of mRNA measured in the various samples. […] The QRT-PCR signals were evacuated using the corresponding quantification method ΔΔ[…]. Relative gene expression data were analysed using real-time quantitative PCR and the 2(-Delta Delta C(T)) Method. […] The values obtained were expressed as a relative quantity (RQ) of the variation in the messenger levels. The colorectal adenocarcinoma cell line HT29, which was chosen for its responsiveness to the VD3 deriving from the corresponding VDR receptor, was subjected to “in vitro” treatment with 5-ASA 20 mM and VD3 10^-7 M, used individually and in association, in order to quantify the antiproliferative effect determined by the compounds analysed on cancerous colonocytes. […]

| SMILES | cellularity "fold change" value [1] | mortality / survival of treated cells [1] | antiproliferative effect of ASA 10 mM compared with 5-ASA 20 mM ([1]; 10 mM ASA vs 20 mM 5-ASA (equivalents)) | induction of messenger expression of E-cadherin [2] | induction of messenger expression of KLF4 [2] | induction of messenger expression of p21^waf1 [2] [times] | induction of messenger expression of μ-protocadherin [2] | increase in messenger expression of E-cadherin [3] [times] | increase in messenger expression of KLF-4 [3] [times] | increase in messenger expression of p21 [3] [times] | increase in messenger expression of μ-protocadherin [3] [times] | number of cell expansions compared with the initial number of cells [4] [expansions] |
| --- | --- | --- | --- | --- | --- | --- | --- | --- | --- | --- | --- | --- |
| CC(=O)Oc1ccccc1C(=O)O [ASA, acetylsalicylic acid] | 0.2 | 80% | absolutely superimposable antiproliferative effect | does not, on the other hand, induce | does not, on the other hand, induce | 5.8 | does not, on the other hand, induce |  |  |  |  |  |
| C=C1/C(=C\C=C2/CCC[C@]3(C)[C@@H]([C@H](C)CCCC(C)(C)O)CC[C@@H]23)C[C@@H](O)C[C@@H]1O [VD3, 1 alpha, 25 dihydroxyvitamin D3] |  |  |  |  |  |  |  | 1.7 | 1.6 | 1.5 | 1 | 10 |
| Nc1ccc(O)c(C(=O)O)c1 [5-ASA, 5-aminosalicylic acid] | 1 | all the cells treated with 5-ASA survive |  | 2.4 times | 5.5 times | 8.0 | 3.8 times | 2.2 | 2.2 | 2.9 | 2.5 | 8 |
